The values that follow come from patent US7713994B2 (Wyeth LLC, priority 2005, dated 2010).

In one assay the target is T1, cyclin D1/cdk 4 enzyme (Homo sapiens, UniProt P11802).
T1 construct: made in house; host or cells: Sf9 insect cells, recombinant baculovirus
Put plainly: CDK4 ELISA kinase assay (phospho-Rb ser 795 detection). The conditions noted are these: In Vitro Enzyme Assay, cyclin D1/cdk 4, read-out: CDK4 IC50. The format is biochemical. In outline: (§1)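 Wells were coated overnight with GST-Rb C-terminal fragment, then blocked. Compound (10 ug/ml final) and cyclin/CDK enzyme from baculovirus-infected Sf9 cells with 200 μM ATP reacted 1 h at 30° C. Ser795 phosphorylation was detected by ELISA at 450 nm.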
A general note: ELISA stands for enzyme-linked immunosorbent assay.

The target of another assay is T2, cyclin E/CDK2 enzyme (Homo sapiens, UniProt P24941).
T2 construct: made in house; host or cells: Sf9 insect cells, recombinant baculovirus
The assay is described as follows: CDK2 ELISA kinase assay (phospho-Rb ser 795 detection). It counts as biochemical. The conditions noted are these: In Vitro Enzyme Assay, cyclin E/CDK2, read-out: CDK2 IC50. Summed up:
as §1

In the next assay the target is T3, cyclin B/CDK1 enzyme (Homo sapiens, UniProt P06493).
T3 construct: purchased New England BioLabs; host or cells: Sf9 insect cells, recombinant baculovirus
T3 sequence (P06493 whole entry): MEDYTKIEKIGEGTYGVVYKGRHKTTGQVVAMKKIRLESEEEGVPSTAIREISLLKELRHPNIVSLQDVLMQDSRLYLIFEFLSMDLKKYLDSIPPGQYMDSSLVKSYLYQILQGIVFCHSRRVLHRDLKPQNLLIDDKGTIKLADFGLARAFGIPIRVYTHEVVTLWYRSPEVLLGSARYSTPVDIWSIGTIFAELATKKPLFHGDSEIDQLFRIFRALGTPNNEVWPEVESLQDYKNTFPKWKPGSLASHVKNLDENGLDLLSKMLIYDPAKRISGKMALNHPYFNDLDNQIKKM
T3 sequence (P14635 whole entry partner): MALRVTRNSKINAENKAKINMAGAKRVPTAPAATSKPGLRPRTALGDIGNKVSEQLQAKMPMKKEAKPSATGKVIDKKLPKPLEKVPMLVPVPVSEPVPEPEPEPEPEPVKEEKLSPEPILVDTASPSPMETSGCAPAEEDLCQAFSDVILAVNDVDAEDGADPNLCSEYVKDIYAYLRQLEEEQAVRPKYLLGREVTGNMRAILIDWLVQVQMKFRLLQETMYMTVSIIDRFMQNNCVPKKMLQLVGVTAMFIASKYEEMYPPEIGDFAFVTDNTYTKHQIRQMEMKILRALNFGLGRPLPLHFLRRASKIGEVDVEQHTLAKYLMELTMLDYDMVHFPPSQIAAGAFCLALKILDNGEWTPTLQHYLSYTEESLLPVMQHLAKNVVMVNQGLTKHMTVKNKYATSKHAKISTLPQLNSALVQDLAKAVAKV
Put plainly: CDK1 ELISA kinase assay (phospho-Rb ser 795 detection). The settings on record: In Vitro Enzyme Assay, cyclin B/CDK1, read-out: CDK1 IC50. It counts as biochemical. In outline: as §1

The next assay concerns BT474. Put plainly: Cytotoxicity assay (SRB), BT474. It counts as cell-based. The conditions noted are these: Homo sapiens, BT-474, 144 h, BT474 cells, 6 days, SRB; read-out: In Vitro Cellular Activity IC50 BT474. In outline: (§2)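 Plate cells, let them attach overnight, add compound dilutions in RPMI 1640/5% FBS, and incubate 3 days (BT474 6 days). Then fix with TCA, stain with SRB, dissolve the dye in Tris and read at 540 nm.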

For another assay, the system named is HCT-116. Put plainly: Cytotoxicity assay (SRB), HCT-116. The format is cell-based. The conditions noted are these: Homo sapiens, HCT-116, 72 h, HCT116 cells, 3 days, SRB; read-out: In Vitro Cellular Activity IC50 HCT116. Summed up:
as §2

The next assay has as its system LoVo. Put plainly: Cytotoxicity assay (SRB), LoVo. It counts as cell-based. The conditions noted are these: Homo sapiens, LoVo, 72 h, LoVo cells, 3 days, SRB; read-out: In Vitro Cellular Activity IC50 LOVO. Summed up: as §2
Another assay deals with MCF-7. Put plainly: Cytotoxicity assay (SRB), MCF-7. It counts as cell-based. The settings on record: Homo sapiens, MCF7, 72 h, MCF-7 cells, 3 days, SRB; read-out: In Vitro Cellular Activity IC50 MCF-7. Summed up:
as §2

Molecules are shown by their SMILES.

T1 sequence (P11802 whole entry, species assumed): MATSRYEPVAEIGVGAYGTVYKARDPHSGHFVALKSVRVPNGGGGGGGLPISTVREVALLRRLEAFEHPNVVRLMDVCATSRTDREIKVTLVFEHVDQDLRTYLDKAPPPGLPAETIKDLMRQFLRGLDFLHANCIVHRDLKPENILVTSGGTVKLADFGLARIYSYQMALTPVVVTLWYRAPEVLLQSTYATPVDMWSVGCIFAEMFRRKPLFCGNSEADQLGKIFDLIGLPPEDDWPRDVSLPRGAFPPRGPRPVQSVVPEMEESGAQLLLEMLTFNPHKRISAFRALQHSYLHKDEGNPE
T1 sequence (P24385 whole entry partner, species assumed): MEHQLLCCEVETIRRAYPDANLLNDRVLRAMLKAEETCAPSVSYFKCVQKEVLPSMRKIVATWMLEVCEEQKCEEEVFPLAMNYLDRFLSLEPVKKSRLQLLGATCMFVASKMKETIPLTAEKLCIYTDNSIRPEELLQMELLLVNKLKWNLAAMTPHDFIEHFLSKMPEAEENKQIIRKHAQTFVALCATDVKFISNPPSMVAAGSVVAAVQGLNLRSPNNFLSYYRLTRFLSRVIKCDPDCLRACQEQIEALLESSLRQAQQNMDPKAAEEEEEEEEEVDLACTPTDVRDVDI

Take `COc1ccc(CNC=C2C(=O)NC(=O)c3ccc(C=Cc4ccncc4)cc32)cc1O` [Example 824, 4-[(3-Hydroxy-4-methoxy-benzylamino)-methylene]-6-(2-pyridin-4-yl-vinyl)-4H-isoquinoline-1,3-dione]: the IC50 is 0.01 µM at cyclin D1/cdk 4 enzyme; 34.7 µM on cyclin E/CDK2 enzyme; more than 50 µM at cyclin B/CDK1 enzyme; more than 50 µM in the assay on BT474; 27.5 µM in the assay on HCT-116; more than 50 µM in the assay with LoVo. Moreover, in the assay on MCF-7, the IC50 came out at 33.2 µM.

For `COc1ccc(CNC=C2C(=O)NC(=O)c3ccc(C=Cc4ccccc4)cc32)cc1O` [Example 825, 4-[(3-Hydroxy-4-methoxy-benzylamino)-methylene]-6-styryl-4H-isoquinoline-1,3-dione], the IC50 is 0.02 µM on cyclin D1/cdk 4 enzyme; 36.3 µM at cyclin E/CDK2 enzyme; more than 50 µM at cyclin B/CDK1 enzyme; 24.7 µM in the assay on BT474; 11.9 µM in the assay with HCT-116; 22.1 µM with LoVo. The IC50 in the assay with MCF-7 is 12.3 µM.

With `COc1ccc(CNC=C2C(=O)NC(=O)c3ccc(C=CCc4cccc(OC)c4O)cc32)cc1O` [Example 827, 4-[(3-Hydroxy-4-methoxy-benzylamino)-methylene]-6-[3-(2-hydroxy-3-methoxy-phenyl)-propenyl]-4H-isoquinoline-1,3-dione], the IC50 at cyclin D1/cdk 4 enzyme was 0.12 µM; at cyclin E/CDK2 enzyme, 45.5 µM; on cyclin B/CDK1 enzyme it was more than 50 µM; in the assay on BT474 it was 26.5 µM; in the assay on HCT-116, 10.8 µM; in the assay on LoVo it was 18.1 µM. Also, the IC50 with MCF-7 came out at 17.5 µM.

Consider `COc1ccc(CNC=C2C(=O)NC(=O)c3ccc(-c4ccccc4)cc32)cc1O` [Example 832, 4-[(3-Hydroxy-4-methoxy-benzylamino)-methylene]-6-phenyl-4H-isoquinoline-1,3-dione], for which the IC50 at cyclin D1/cdk 4 enzyme turned out to be 0.01 µM; at cyclin E/CDK2 enzyme, 25.9 µM; on cyclin B/CDK1 enzyme, 34.7 µM; in the assay with BT474, 14.9 µM; in the assay on HCT-116, 9.9 µM; in the assay with LoVo, 8.5 µM. The IC50 with MCF-7 came to 11.8 µM.

Consider `COc1ccc(-c2ccc3c(c2)C(=CNCc2ccc(OC)c(O)c2)C(=O)NC3=O)cc1` [Example 833, 4-[(3-Hydroxy-4-methoxy-benzylamino)-methylene]-6-(4-methoxy-phenyl)-4H-isoquinoline-1,3-dione], for which the IC50 on cyclin D1/cdk 4 enzyme was 0.01 µM; at cyclin E/CDK2 enzyme it was 15.1 µM; on cyclin B/CDK1 enzyme, more than 50 µM; with BT474, 25.1 µM; in the assay on HCT-116, 16.9 µM; in the assay with LoVo, 19.2 µM. In addition, the IC50 in the assay with MCF-7 is 26.5 µM.

As to `COc1ccc(CNC=C2C(=O)NC(=O)c3ccc(-c4ccc5[nH]ccc5c4)cc32)cc1O` [Example 835, 4-[(3-Hydroxy-4-methoxy-benzylamino)-methylene]-6-(1H-indol-5-yl)-4H-isoquinoline-1,3-dione], the IC50 is 0.04 µM at cyclin D1/cdk 4 enzyme; 40.6 µM on cyclin E/CDK2 enzyme; 35.5 µM on cyclin B/CDK1 enzyme; 11.7 µM in the assay on BT474; 10 µM with HCT-116; 11.3 µM in the assay on LoVo. Moreover, in the assay on MCF-7, the IC50 is 12.6 µM.

Regarding `COc1ccc(CNC=C2C(=O)NC(=O)c3ccc(-c4ccc[nH]4)cc32)cc1O` [Example 836, 4-[(3-Hydroxy-4-methoxy-benzylamino)-methylene]-6-(1H-pyrrol-2-yl)-4H-isoquinoline-1,3-dione], the IC50 is 0.01 µM at cyclin D1/cdk 4 enzyme; 15.4 µM on cyclin E/CDK2 enzyme; 28.3 µM at cyclin B/CDK1 enzyme; 12.8 µM in the assay on BT474; 12.7 µM with HCT-116; 6.8 µM in the assay with LoVo. For the same molecule, the IC50 in the assay on MCF-7 came out at 17.7 µM.

Regarding `COc1ccc(CNC=C2C(=O)NC(=O)c3ccc(-c4ccco4)cc32)cc1O` [Example 837, 6-Furan-2-yl-4-[(3-hydroxy-4-methoxy-benzylamino)-methylene]-4H-isoquinoline-1,3-dione], the IC50 was 0.02 µM at cyclin D1/cdk 4 enzyme; 24.2 µM at cyclin E/CDK2 enzyme; more than 50 µM at cyclin B/CDK1 enzyme; 1.5 µM in the assay on BT474; 10.6 µM with HCT-116; 8.5 µM in the assay with LoVo. The IC50 in the assay with MCF-7 turned out to be 3.6 µM.

For `O=C1NC(=O)c2ccc(-c3ccc[nH]3)cc2C1=CNc1ccc(CN2CCCC2)cc1` [Example 838, 4-[(4-Pyrrolidin-1-ylmethyl-phenylamino)-methylene]-6-(1H-pyrrol-2-yl)-4H-isoquinoline-1,3-dione], the half-maximal inhibitory concentration (IC50) on cyclin D1/cdk 4 enzyme turned out to be 0.15 µM; at cyclin E/CDK2 enzyme, 23.6 µM; on cyclin B/CDK1 enzyme, 45.5 µM; in the assay with BT474, 23.5 µM; in the assay on HCT-116, 7.2 µM; in the assay on LoVo, 17.2 µM. For the same molecule, the IC50 with MCF-7 came out at 8.2 µM.

On to `N#Cc1ccc(-c2ccc3c(c2)C(=CNc2ccc(CN4CCCC4)cc2)C(=O)NC3=O)cc1` [Example 839, 4-{1,3-Dioxo-4-[(4-pyrrolidin-1-ylmethyl-phenylamino)-methylene]-1,2,3,4-tetrahydro-isoquinolin-6-yl}-benzonitrile], for which the IC50 at cyclin D1/cdk 4 enzyme is 3.3 µM; at cyclin E/CDK2 enzyme, 38.8 µM; on cyclin B/CDK1 enzyme it was more than 50 µM; in the assay with BT474, 27.2 µM; in the assay on HCT-116, 14.1 µM; in the assay on LoVo, more than 50 µM. Further, in the assay on MCF-7, the IC50 was 21.6 µM.

As for `O=C1NC(=O)c2ccc(-c3ccc(CO)cc3)cc2C1=CNc1ccc(CN2CCCC2)cc1` [Example 840, 6-(4-Hydroxymethyl-phenyl)-4-[(4-pyrrolidin-1-ylmethyl-phenylamino)-methylene]-4H-isoquinoline-1,3-dione], the IC50 at cyclin D1/cdk 4 enzyme was 3 µM; at cyclin E/CDK2 enzyme, 31 µM; on cyclin B/CDK1 enzyme, more than 50 µM; in the assay with BT474 it was more than 50 µM; with HCT-116, 19 µM; in the assay with LoVo, more than 50 µM. Besides, the IC50 in the assay with MCF-7 was found to be 40 µM.

For `COCCn1ccc(-c2ccc3c(c2)C(=CNc2ccc(N4CCN(C)CC4)cc2)C(=O)NC3=O)c1` [Example 843, 6-[1-(2-Methoxy-ethyl)-1H-pyrrol-3-yl]-4-{[4-(4-methyl-piperazin-1-yl)-phenylamino]-methylene}-4H-isoquinoline-1,3-dione], the IC50 at cyclin D1/cdk 4 enzyme is 0.18 µM; on cyclin E/CDK2 enzyme, more than 50 µM; at cyclin B/CDK1 enzyme, more than 50 µM; in the assay on BT474 it was more than 50 µM; with HCT-116, 54.3 µM; with LoVo, more than 50 µM. Besides, the IC50 with MCF-7 turned out to be 47.1 µM.

For the molecule `O=C1NCc2cc(Br)ccc2C1=CNc1ccc(CN2CCCC2)cc1` [Example 847, 7-Bromo-4-[(4-pyrrolidin-1-ylmethyl-phenylamino)-methylene]-1,4-dihydro-2H-isoquinolin-3-one], the IC50 on cyclin D1/cdk 4 enzyme was 5 µM; on cyclin E/CDK2 enzyme it was more than 50 µM; at cyclin B/CDK1 enzyme, more than 50 µM; in the assay on BT474, 8.1 µM; with HCT-116 it was 4.3 µM; with LoVo it was 4.9 µM. Moreover, the IC50 with MCF-7 was 6 µM.

Consider `CN1CCN(c2ccc(NC=C3C(=O)NCc4cc(-c5cccs5)ccc43)cc2)CC1` [Example 848, 4-{[4-(4-Methyl-piperazin-1-yl)-phenylamino]-methylene}-7-thiophen-2-yl-1,4-dihydro-2H-isoquinolin-3-one], for which the IC50 is more than 50 µM on cyclin D1/cdk 4 enzyme; more than 50 µM at cyclin E/CDK2 enzyme; 44.4 µM on cyclin B/CDK1 enzyme; 13.8 µM in the assay with BT474; 7.1 µM with HCT-116; 13.3 µM in the assay on LoVo. The IC50 with MCF-7 worked out at 10.9 µM.

In general, IC50 refers to the concentration that inhibits the measured activity by half.
